# What was measured:
# [1] = tested on: carbapenem sensitive Escherichia coli; assay: MIC by broth micro-dilution (CLSI), carbapenem sensitive E. coli; format: cell-based; details: Escherichia coli, ATCC25922, ESBL −ve E. coli ATCC25922; read-out: MIC
# [2] = tested on: carbapenem sensitive Pseudomonas aeruginosa; assay: MIC by broth micro-dilution (CLSI), carbapenem sensitive P. aeruginosa; format: cell-based; details: Pseudomonas aeruginosa, ATCC27853, Meropenem susceptible P. aeruginosa ATCC27853; read-out: MIC
# [3] = tested on: carbapenemase producing K. pneumoniae; assay: MIC by broth micro-dilution (CLSI), carbapenemase producing K. pneumoniae; format: cell-based, Klebsiella pneumoniae; details: Klebsiella pneumoniae, ATCCBAA1705, KPC-2 K. pneumoniae ATCC BAA-1705; read-out: MIC
# [4] = tested on: methicillin-sensitive Staphylococcus aureus; assay: MIC by broth micro-dilution (CLSI), methicillin-sensitive S. aureus; format: cell-based; details: Staphylococcus aureus, ATCC 29213 / MSSA, MSSA S. aureus ATCC29213; read-out: MIC
Structure (SMILES),MIC [1] [µg/mL],MIC [2] [µg/mL],MIC [3] [µg/mL],MIC [4] [µg/mL]
"C[C@@H](NC(=O)Cn1cnnn1)[C@H]1C(=O)N2C(C(=O)O)=C(S[C@@H]3CN[C@H](C(=O)N4C[C@H](N)C[C@H]4C(=O)N4CC[C@@H](N)C4)C3)[C@H](C)[C@H]12 [Example 447, (4R,5S,6R)-6-((R)-1-(2-(1H-tetrazol-1-yl)acetamido)ethyl)-3-((3S,5S)-5-((2S,4R)-4-amino-2-((R)-3-aminopyrrolidine-1-carbonyl)pyrrolidine-1-carbonyl)pyrrolidin-3-ylthio)-4-methyl-7-oxo-1-azabicyclo[3.2.0]hept-2-ene-2-carboxylic acid]",0.5,16,4,16
"C[C@@H](NC(=O)Cn1cnnn1)[C@H]1C(=O)N2C(C(=O)O)=C(S[C@@H]3CN[C@H](C(=O)N4CCC(n5nccn5)CC4)C3)[C@H](C)[C@H]12 [Example 448, (4R,5S,6R)-6-((R)-1-(2-(1H-tetrazol-1-yl)acetamido)ethyl)-3-((3S,5S)-5-(4-(2H-1,2,3-triazol-2-yl)piperidine-1-carbooyl)pyrrolidin-3-ylthio)-4-methyl-7-oxo-1-azabicyclo[3.2.0]hept-2-ene-2-carboxylic acid]",0.5,> 128,8,4
"C[C@@H](NC(=O)Cn1cnnn1)[C@H]1C(=O)N2C(C(=O)O)=C(S[C@H]3CCN(C(=O)CN)C3)[C@H](C)[C@H]12 [Example 449, (4R,5S,6R)-6-((R)-1-(2-(1H-tetrazol-1-yl)acetamido)ethyl)-3-((S)-1-(2-aminoacetyl)pyrrolidin-3-ylthio)-4-methyl-7-oxo-1-azabicyclo[3.2.0]hept-2-ene-2-carboxylic acid]",0.5,64,4,4
"C[C@@H](NC(=O)Cn1cnnn1)[C@H]1C(=O)N2C(C(=O)O)=C(S[C@@H]3CN[C@H](C(=O)N4CCN(C[C@H](O)CN)CC4)C3)[C@H](C)[C@H]12 [Example 450, (4R,5S,6R)-6-((R)-1-(2-(1H-tetrazol-1-yl)acetamido)ethyl)-3-((3S,5S)-5-(4-((R)-3-amino-2-hydroxypropyl)piperazine-1-carbonyl)pyrrolidin-3-ylthio)-4-methyl-7-oxo-1-azabicyclo[3.2.0]hept-2-ene-2-carboxylic acid]",0.25,1,1,8
"C[C@@H](NC(=O)Cn1cnnn1)[C@H]1C(=O)N2C(C(=O)O)=C(S[C@@H]3CN[C@H](C(=O)N4CCN(CCN5CCNCC5)CC4)C3)[C@H](C)[C@H]12 [Example 451, (4R,5S,6R)-6-((R)-1-(2-(1H-tetrazol-1-yl)acetamido)ethyl)-3-methyl-7-oxo-3-((3S,5S)-5-(4-(2-(piperazin-1-yl)ethyl)piperazine-1-carbonyl)pyrrolidin-3-ylthio)-1-azabicyclo[3.2.0]hept-2-ene-2-carboxylic acid]",0.25,2,1,8
"C[C@@H](NC(=O)Cn1cnnn1)[C@H]1C(=O)N2C(C(=O)O)=C(S[C@@H]3CN[C@H](C(=O)N4C[C@H](N)C[C@H]4C(=O)O)C3)[C@H](C)[C@H]12 [Example 453, (4R,5S,6R)-6-((R)-1-(2-(1H-tetrazol-1-yl)acetamido)ethyl)-3-((3S,5S)-5-((2S,4R)-4-amino-2-carboxypyrrolidine-1-carbonyl)pyrrolidin-3-ylthio)-4-methyl-7-oxo-1-azabicyclo[3.2.0]hept-2-ene-2-carboxylic acid]",0.125,8,2,16
"C[C@@H](NC(=O)Cn1cnnn1)[C@H]1C(=O)N2C(C(=O)O)=C(S[C@@H]3CN[C@H](C(=O)N4C[C@@H](N)C[C@H]4CNS(N)(=O)=O)C3)[C@H](C)[C@H]12 [Example 454, (4R,5S,6R)-6-((R)-1-(2-(1H-tetrazol-1-yl)acetamido)ethyl)-3-((3S,5S)-5-((2S,4S)-4-amino-2-((sulfamoylamino)-methyl)pyrrolidine-1-carbonyl)pyrrolidin-3-ylthio)-4-methyl-7-oxo-1-azabicyclo[3.2.0]hept-2-ene-2-carboxylic acid]",0.5,4,4,8
"C[C@@H](NC(=O)Cn1cnnn1)[C@H]1C(=O)N2C(C(=O)O)=C(S[C@@H]3CN[C@H](C(=O)N4C[C@H](N)C[C@H]4CNS(N)(=O)=O)C3)[C@H](C)[C@H]12 [Example 455, (4R,5S,6R)-6-((R)-1-(2-(1H-tetrazol-1-yl)acetamido)ethyl)-3-((3S,5S)-5-((2S,4R)-4-amino-2-((sulfamoylamino)methyl)pyrrolidine-1-carbonyl)pyrrolidin-3-ylthio)-4-methyl-7-oxo-1-azabicyclo[3.2.0]hept-2-ene-2-carboxylic acid]",0.5,4,2,4
"C[C@@H](NC(=O)Cn1cnnn1)[C@H]1C(=O)N2C(C(=O)O)=C(S[C@@H]3CN[C@H](C(=O)N4CCN(C(=O)[C@@H](N)CN)CC4)C3)[C@H](C)[C@H]12 [Example 456, (4R,5S,6R)-6-((R)-1-(2-(1H-tetrazol-1-yl)acetamido)ethyl)-3-((3S,5S)-5-(4-((S)-2,3-diaminopropanoyl)piperazine-1-carbonyl)pyrrolidin-3-ylthio)-4-methyl-7-oxo-1-azabicyclo[3.2.0]hept-2-ene-2-carboxylic acid]",0.5,2,2,2
"C[C@@H](NC(=O)Cn1cnnn1)[C@H]1C(=O)N2C(C(=O)O)=C(S[C@@H]3CN[C@H](C(=O)N4CCN(C[C@H](N)CN)CC4)C3)[C@H](C)[C@H]12 [Example 457, (4R,5S,6R)-6-((R)-1-(2-(1H-tetrazol-1-yl)acetamido)ethyl)-3-((3S,5S)-5-(4-((R)-2,3-diaminopropyl)piperazine-1-carbonyl)pyrrolidin-3-ylthio)-4-methyl-7-oxo-1-azabicyclo[3.2.0]hept-2-ene-2-carboxylic acid]",0.25,1,1,2
"C[C@@H](NC(=O)CN1CCCC1)[C@H]1C(=O)N2C(C(=O)O)=C(S[C@@H]3CN[C@H](C(=O)N(C)C)C3)[C@H](C)[C@H]12 [Example 458, (4R,5S,6R)-3-((3S,5S)-5-(dimethylcarbamoyl)pyrrolidin-3-ylthio)-4-methyl-7-oxo-6-((R)-1-(2-(pyrrolidin-1-yl)acetamido)ethyl)-1-azabicyclo[3.2.0)hept-2-eoe-2-carboxylic acid]",0.5,16,1,16
"C[C@@H](NC(=O)Cn1cnnn1)[C@H]1C(=O)N2C(C(=O)O)=C(S[C@@H]3CN[C@H](C(=O)N4CCO[C@H](CN)C4)C3)[C@H](C)[C@H]12 [Example 460, (4R,5S,5R)-6-((R)-1-(2-(1H-tetrazol-1-yl)acetamido)ethyl)-3-((3S,5S)-5-((R)-2-(aminomethyl)morpholine-4-carbonyl)pyrrolidin-3-ylthio)-4-methyl-7-oxo-1-azabicyclo[3.2.0]hept-2-ene-2-carboxylic acid]",0.5,4,2,4
"C[C@@H](NC(=O)Cn1cnnn1)[C@H]1C(=O)N2C(C(=O)O)=C(S[C@@H]3CN[C@H](C(=O)N4CCC(CN)(CO)CC4)C3)[C@H](C)[C@H]12 [Example 463, (4R,5S,6R)-6-((R)-1-(2-(1H-tetrazol-1-yl)acetamido)ethyl)-3-((3S,5S)-5-(4-(aminomethyl)-4-(hydroxymethyl)piperidine-1-carbonyl)pyrrolidin-3-ylthio)-4-methyl-7-oxo-1-azabicyclo[3.2.0]hept-2-ene-2-carboxylic acid]",0.5,2,1,4
"C[C@@H](NC(=O)Cn1cnnn1)[C@H]1C(=O)N2C(C(=O)O)=C(S[C@@H]3CN[C@H](C(=O)N4CCC[C@H]4CN)C3)[C@H](C)[C@H]12 [Example 464, (4R,5S,6R)-6-((R)-1-(2-(1-tetrazol-1-yl)acetamido)ethyl)-3-((3S,5S)-5-((S)-2-(aminomethyl)pyrrolidine-1-carbooyl)pyrrolidin-3-ylthio)-4-methyl-7-oxo-1-azabicyclo[3.2.0]hept-2-ene-2-carboxylic acid]",1,16,4,4
"C[C@@H](NC(=O)Cn1cnnn1)[C@H]1C(=O)N2C(C(=O)O)=C(S[C@@H]3CN[C@H](C(=O)N4CCC[C@@H]4CN)C3)[C@H](C)[C@H]12 [Example 465, (4R,5S,6R)-6-((R)-1-(2-(1H-tetrazol-1-yl)acetamido)ethyl)-3-((3S,5S)-5-((R)-2-(aminomethyl)pyrrolidine-1-carbonyl)pyrrolidin-3-ylthio)-4-methyl-7-oxo-1-azabicyclo[3.2.0]hept-2-ene-2-carboxylic acid]",0.5,16,2,4
"C[C@@H](NC(=O)Cn1cnnn1)[C@H]1C(=O)N2C(C(=O)O)=C(S[C@@H]3CN[C@H](C(=O)N4C[C@@H](O)C[C@H]4CN)C3)[C@H](C)[C@H]12 [Example 470, (4R,5S,6R)-6-((R)-1-(2-(1H-tetrazol-1-yl)acetamido)ethyl)-3-((3S,5S)-5-((2S,4S)-2-(aminomethyl)-4-hydroxypyrrolidine-1-carbonyl)pyrrolidin-3-ylthio)-4-methyl-7-oxo-1-azabicyclo[3.2.0]hept-2-ene-2-carboxylic acid]",0.5,4,2,4
